Laboratory results: patent publication US12723039B2, “Small molecule inhibitors of SLC15A4 with anti-inflammatory activity” (THE SCRIPPS RESEARCH INSTITUTE, priority 2020, dated 2026)

Experiments:
[1] = system: CpG (TLR9); assay: In vivo model of inflammation: CpG co-injection, serum cytokines; details: mice co-injected with compound and CpG (TLR9), single dose, serum after 6 hr
[2] = biological target: T1, human SLC15A4 dileucine mutant (L14A, L15A, L318A, V319A) (Homo sapiens, UniProt Q8N697, L14A/L15A/L318A/V319A); assay: SLC15A4 transport NFκB luciferase reporter assay in A549 cells; type: cell-based; details: for suppression of MDP or Tri-DAP induced NFκB luciferase: A549 cells with membrane-trafficked SLC15A4 mutant; for block of MDP transport in a dose-dependent fashion: FIG. 9
T1 construct: expressed in transfected cells
Excerpt: Development of SLC15A4-Transport Luciferase Reporter Assay. […] The precise substrate scope of endolysosomal SLC15A4 is not established. However, several studies have implicated SLC15A4 to be a transporter of the bacterial-derived peptidoglycans, such as MDP and Tri-DAP, which are ligands of the immune sensors NOD1 and NOD2^27-29, 48. Recently, it has been shown that disruption of the dileucine motifs (DE)-XXXL-(L/I) or DXXLL of SLC15A3^49 and SLC15A4^50 can result in successful targeting to the plasma membrane. Considering that NODs signal through the NFκB pathway, we sought to develop an NFκB reporter assay as a strategy to measure SLC15A4 transport in cells.
Briefly, both wildtype (WT) human SLC15A4 and a dileucine mutant (L14A, LISA, L318A, V319A) were cloned in frame with the mCherry using a (GGGGS)3 linker in the pLPC lentiviral backbone. Lentiviral vectors were packaged in psPAX2 and pMD2.G packing plasmids and used to generate stable cell lines expressing either SLC15A4 WT or membrane-trafficked SLC15A4 mutant A549 cells (FIG. 5A). Stable reporter cells were subsequently generated from these SLC15A4 cell lines using the Promega Dual-Luciferase Reporter system (pGLA4.32 [luc2P/NFκB-RE/Hygro]) containing five copies of an NF-κB response element. We confirmed the production of luciferase upon exposure to MDP or Tri-DAP NOD ligands ([…]), which is suppressed when exposed to either triptolide (an NF[…]B inhibitor, FIG. 5C) ML130 (NOD1 inhibitor, not shown) or GSK717 (NOD2 inhibitor, not shown).

[3] = system: endogenous NOD signaling in human macrophages; assay: Endogenous NOD signaling in human macrophages; type: cell-based; details: FIG. 11
[4] = system: endogenous NOD signaling in mouse macrophages; assay: Endogenous NOD signaling in mouse macrophages; type: cell-based; details: FIG. 11
[5] = biological target: T2, SLC25A20 (Homo sapiens, UniProt O43772); details: previously published work (ref. 46); cited from earlier work
T2 construct: endogenous in cells
T2 sequence (O43772 1-301): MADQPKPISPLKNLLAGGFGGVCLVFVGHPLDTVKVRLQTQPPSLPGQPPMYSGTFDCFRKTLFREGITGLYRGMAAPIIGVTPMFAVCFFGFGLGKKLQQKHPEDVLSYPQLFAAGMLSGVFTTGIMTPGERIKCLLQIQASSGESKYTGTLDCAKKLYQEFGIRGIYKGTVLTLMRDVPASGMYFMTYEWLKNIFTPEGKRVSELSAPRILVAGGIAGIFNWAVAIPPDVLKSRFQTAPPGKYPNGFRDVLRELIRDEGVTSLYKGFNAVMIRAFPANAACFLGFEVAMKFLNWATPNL

T1 sequence (Q8N697 whole entry L14A/L15A/L318A/V319A): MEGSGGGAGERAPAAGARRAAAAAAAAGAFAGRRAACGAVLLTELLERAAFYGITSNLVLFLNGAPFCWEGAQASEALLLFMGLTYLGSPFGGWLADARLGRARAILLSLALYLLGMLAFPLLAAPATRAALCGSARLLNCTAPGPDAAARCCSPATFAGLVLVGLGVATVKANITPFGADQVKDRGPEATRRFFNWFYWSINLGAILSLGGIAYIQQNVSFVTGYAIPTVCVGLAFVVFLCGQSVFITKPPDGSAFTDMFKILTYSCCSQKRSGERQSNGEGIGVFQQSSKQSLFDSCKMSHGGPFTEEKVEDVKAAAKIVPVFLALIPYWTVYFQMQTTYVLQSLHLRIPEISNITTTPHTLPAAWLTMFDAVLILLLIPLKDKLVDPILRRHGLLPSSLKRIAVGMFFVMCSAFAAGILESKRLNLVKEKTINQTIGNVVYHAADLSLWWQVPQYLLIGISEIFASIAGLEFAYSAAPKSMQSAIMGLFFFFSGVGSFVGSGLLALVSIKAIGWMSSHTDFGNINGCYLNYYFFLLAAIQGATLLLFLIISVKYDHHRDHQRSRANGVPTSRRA

Compound	in vivo efficacy: serum cytokines after CpG [1]	block of MDP transport in a dose-dependent fashion [2]	also measured
CCCC(=O)n1c(NCc2c[nH]c3ccc(Br)cc23)nc2ccccc21 [AJ2-3, 1-(2-(((5-bromo-1H-indol-3-yl)methyl)amino)-1H-benzo[d]imidazol-1-yl)butan-1-one]	active		
CC(C)[C@]12O[C@H]1[C@@H]1O[C@]13[C@]1(O[C@H]1C[C@H]1C4=C(CC[C@@]13C)C(=O)OC4)[C@@H]2O [triptolide, reference compound]			suppression of MDP or Tri-DAP induced NFκB luciferase [2]: suppressed
Brc1ccc2[nH]cc(CNc3nc4ccccc4[nH]3)c2c1 [AJ2-3A, N-((5-bromo-1H-indol-3-yl)methyl)-1H-benzo[d]imidazol-2-amine]		active	
CCn1c2ccccc2c2cc(CNc3nc4ccccc4n3C)ccc21 [AJ2-30, N-((9-ethyl-9H-carbazol-3-yl)methyl)-1-methyl-1H-benzo[d]imidazol-2-amine]	active	active	block of endogenous NOD signaling in human macrophages [3]: active; block of endogenous NOD signaling in mouse macrophages [4]: active
CCCC(=O)N(Cc1ccc2[nH]ccc2c1)C1Cc2ccccc2NC1=O (stereo not drawn) [AJ2-18, N-((1H-indol-5-yl)methyl)-N-(2-oxo-1,2,3,4-tetrahydroquinolin-3-yl)butyramide]		inactive controls	
CCCC(=O)N(Cc1ccc2[nH]ccc2c1)C1Cc2ccccc2C1 [AJ2-22, N-((1H-indol-5-yl)methyl)-N-(2,3-dihydro-1H-inden-2-yl)butyramide]	inactive control	inactive controls	
C#CCCC1(CCC(=O)Nc2ccc3oc(=O)ccc3c2)N=N1 [FFF 3]			engagement of SLC25A20 [5]: highly engages
Cc1ccc(S(=O)(=O)n2c(N)nc3ccccc32)cc1 [ML130, reference compound]			suppression of MDP or Tri-DAP induced NFκB luciferase [2]: suppressed
